Bounds are passed on as bounds.

One series relates to Botrytis cinerea. As to the kind of experiment: Botrytis cinerea (grey mould), bean leaf disk assay, preventive. Format: in vivo. The conditions noted are these: foliar, 96 h, 200 ppm, bean leaf disks, assessed four days after inoculation, read-out: control of fungal infection, Botrytis cinerea.
The next series deals with Septoria tritici. As to the kind of experiment: Septoria tritici (leaf blotch), liquid culture growth inhibition in nutrient broth. It is filed as cell-based. Particulars: Zymoseptoria tritici; 200 ppm; PDB broth, 24 C; inhibition of growth determined photometrically after 72 hrs; read-out: control of fungal infection, Septoria tritici.
The subject of the next series is Plasmopara viticola. The series can be described thus: Plasmopara viticola (downy mildew of grapevine), grapevine leaf disk assay, preventive. Format: in vivo. The conditions noted are these: foliar, 168 h, 200 ppm, grapevine leaf disks, assessed seven days after inoculation, read-out: control of fungal infection, Plasmopara viticola.
Series [1] deals with Erysiphe graminis f.sp. tritici. The series can be described thus: Erysiphe graminis f.sp. tritici (wheat powdery mildew), wheat leaf segment assay, preventive. It is filed as in vivo. The conditions noted are these: Blumeria graminis, foliar, 96 h; 200 ppm; wheat leaf segments; assessed four days after inoculation; read-out: control of fungal infection, Etysiphe graminis f.sp. tritici.

The subject of another series is Pythium ultimum. The series can be described thus: Pythium ultimum (Damping off), liquid culture growth inhibition in potato dextrose broth. Format: cell-based. Particulars: Globisporangium ultimum; 20 ppm; potato dextrose broth, 24° C.; inhibition of growth determined photometrically after 48 hours; read-out: control of fungal infection, Pythium ultimum.
For the next series, the system named is Fusarium culmorum. The series can be described thus: Fusarium culmorum (root rot), liquid culture growth inhibition in nutrient broth. It is filed as cell-based. Particulars: PDB broth, 24 C, inhibition of growth determined photometrically after 48 hrs, read-out: control of fungal infection, Fusarium culmorum. A digest of the protocol:
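Fusarium culmorum conidia from cryogenic storage were mixed into potato dextrose broth and added to compound pre-dispensed from DMSO (diluted in 0.025% Tween20). Incubated at 24 C in the dark; growth inhibition read photometrically after 48 hrs.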

In the next series the test system is Septoria nodorum. The series can be described thus: Septoria nodorum (wheat glume blotch), wheat leaf segment assay, preventive. It is filed as in vivo. Particulars: Parastagonospora nodorum, foliar, 96 h; 200 ppm; wheat leaf segments; assessed four days after inoculation; read-out: control of fungal infection, Septoria nodorum.
Series [2] relates to Puccinia recondita f.sp. tritici. As to the kind of experiment: Puccinia recondita f.sp. tritici (wheat brown rust), wheat leaf segment assay, preventive. Format: in vivo. Particulars: foliar, 216 h, 200 ppm, wheat leaf segments, assessed nine days after inoculation, read-out: control of fungal infection, Puccinia recondite f.sp. tritici.
The next series relates to Phytophthora infestans. The series can be described thus: whole plant or invertebrate. It is filed as in vivo. Particulars: in Solanum lycopersicum, foliar, 96 h, read-out: control of fungal infection, Phytophthora infestans.

In turn, `CON=CC(C)(C)NC(=O)C(Oc1cc(Cl)c2ccsc2c1)SC` (stereo not shown) [Compound No. 81, 2-(4-Chloro-benzo[b]thiophen-6-yloxy)-N-(2-methoxyimino-1,1-dimethyl-ethyl)-2-methylsulfanyl-acetamide] gave a melting point of 120 to 122 °C. The pest or weed control at 200 ppm in the series on Botrytis cinerea is no less than 60%. Also, in the series with Septoria tritici, the inhibition of growth at 200 ppm was no less than 60%. The pest or weed control at 200 ppm with Plasmopara viticola is no less than 60%.
In turn, `CON=CC(C)(C)NC(=O)C(Oc1cc(Cl)c2ncc(Cl)cc2c1)SC` (stereo not shown) [Compound No. 90, 2-(3,8-Dichloro-quinolin-6-yloxy)-N-(2-methoxyimino-1,1-dimethyl-ethyl)-2-methylsulfanyl-acetamide] had a melting point of 158 to 161 °C. Further, the pest or weed control at 200 ppm in the series with Botrytis cinerea was no less than 60%. For the same molecule, the pest or weed control at 200 ppm in [1] is no less than 60%. Also, in the series with Septoria tritici, the inhibition of growth at 200 ppm is no less than 60%. In the series on Plasmopara viticola, the pest or weed control at 200 ppm was no less than 60%. In addition, the inhibition of growth at 20 ppm with Pythium ultimum is no less than 60%.
`COCC(C)(C=NOC)NC(=O)C(Oc1ccc2ncc(Br)cc2c1)SC` (stereo not shown) [Compound No. 64, 2-(3-Bromo-quinolin-6-yloxy)-N-[2-methoxy-1-(methoxyimino-methyl)-1-methyl-ethyl]-2-methylsulfanyl-acetamide]: the pest or weed control at 200 ppm (in the series on Botrytis cinerea; in [1]; with Septoria nodorum; in [2]; in the series on Phytophthora infestans; in the series with Plasmopara viticola) was no less than 60% throughout. The inhibition of growth at 200 ppm in the series with Fusarium culmorum and with Septoria tritici was no less than 60% each time. Besides, the inhibition of growth at 20 ppm in the series on Pythium ultimum is no less than 60%.
With `CON=CC(C)(C#N)NC(=O)C(Oc1ccc2ncc(C#C[Si](C)(C)C)cc2c1)SC` (stereo not shown) [Compound No. 58, N-(1-Cyano-2-methoxyimino-1-methyl-ethyl)-2-methylsulfanyl-2-(3-trimethylsilanylethynyl-quinolin-6-yloxy)-acetamide], the melting point lay in the range of 69 to 75 °C. In addition, the pest or weed control at 200 ppm with Botrytis cinerea was no less than 60%. In addition, in [1], the pest or weed control at 200 ppm was no less than 60%. Also, the pest or weed control at 200 ppm in the series on Septoria nodorum is no less than 60%. The pest or weed control at 200 ppm in the series with Phytophthora infestans is no less than 60%. The inhibition of growth at 200 ppm with Septoria tritici was no less than 60%. Besides, in the series on Plasmopara viticola, the pest or weed control at 200 ppm is no less than 60%. Besides, the inhibition of growth at 20 ppm in the series with Pythium ultimum was no less than 60%.
Take `CCC(Oc1ccc2ncc(Br)cc2c1)C(=O)NC(C)(C#N)C=NOC` (stereo not shown) [Compound No. 60, 2-(3-Bromo-quinolin-6-yloxy)-N-(1-cyano-2-methoxyimino-1-methyl-ethyl)-butyramide]: the melting point fell in the range of 152 to 155 °C. The pest or weed control at 200 ppm in the series with Botrytis cinerea is no less than 60%. Further, the pest or weed control at 200 ppm with Phytophthora infestans was no less than 60%. Moreover, the inhibition of growth at 200 ppm with Septoria tritici was no less than 60%. Also, in the series with Pythium ultimum, the inhibition of growth at 20 ppm was no less than 60%.
For the molecule `C#Cc1cnc2ccc(OC(CC)C(=O)NC(C)(C#N)C=NOC)cc2c1` (stereo not shown) [Compound No. 61, N-(1-Cyano-2-methoxyimino-1-methyl-ethyl)-2-(3-ethynyl-quinolin-6-yloxy)-butyramide], the pest or weed control at 200 ppm (with Botrytis cinerea; in series [1]; with Septoria nodorum; in series [2]; in the series on Phytophthora infestans; in the series with Plasmopara viticola) was no less than 60% in each case. In addition, the inhibition of growth at 200 ppm with Fusarium culmorum and in the series on Septoria tritici was no less than 60% each time. In the series with Pythium ultimum, the inhibition of growth at 20 ppm was no less than 60%.
Regarding `CON=CC(C)(C#N)NC(=O)C(Oc1cc(C)c2ncc(Br)cc2c1)SC` (stereo not shown) [Compound No. 54, 2-(3-Bromo-8-methyl-quinolin-6-yloxy)-N-(1-cyano-2-methoxyimino-1-methyl-ethyl)-2-methylsulfanyl-acetamide], the melting point lay within 156 to 159 °C. In the series with Fusarium culmorum, the inhibition of growth at 200 ppm is no less than 60%. In [1], the pest or weed control at 200 ppm is no less than 60%. Also, the pest or weed control at 200 ppm with Phytophthora infestans is no less than 60%. Also, in the series on Septoria tritici, the inhibition of growth at 200 ppm is no less than 60%. For the same molecule, the pest or weed control at 200 ppm in the series on Plasmopara viticola was no less than 60%. Moreover, the inhibition of growth at 20 ppm with Pythium ultimum was no less than 60%.
In the case of `C#Cc1cnc2ccc(OC(SC)C(=O)NC(C)(C#C)C=NOC)cc2c1` (stereo not shown) [Compound No. 69, 2-(3-Ethynyl-quinolin-6-yloxy)-N-[1-(methoxyimino-methyl)-1-methyl-prop-2-ynyl]-2-methylsulfanyl-acetamide], the pest or weed control at 200 ppm (in the series with Botrytis cinerea; in series [1]; with Septoria nodorum; in [2]; in the series on Phytophthora infestans; in the series on Plasmopara viticola) was no less than 60% in each case. Moreover, the inhibition of growth at 200 ppm in the series on Fusarium culmorum and with Septoria tritici was no less than 60% in each case. In the series on Pythium ultimum, the inhibition of growth at 20 ppm is no less than 60%.
In turn, `CON=CC(C)(C)NC(=O)C(Oc1cc(C)c2ncncc2c1)SC` (stereo not shown) [Compound No. 91, N-(2-Methoxyimino-1,1-dimethyl-ethyl)-2-(8-methyl-quinazolin-6-yloxy)-2-methylsulfanyl-acetamide] had a melting point of 109 to 112 °C. The pest or weed control at 200 ppm with Botrytis cinerea is no less than 60%. Also, the pest or weed control at 200 ppm with Phytophthora infestans was no less than 60%. The pest or weed control at 200 ppm with Plasmopara viticola is no less than 60%. Moreover, the inhibition of growth at 20 ppm in the series with Pythium ultimum was no less than 60%.
For `CON=CC(C)(C)NC(=O)C(Oc1ccc2ocnc2c1)SC` (stereo not shown) [Compound No. 88, 2-(benzooxazol-5-yloxy)-N-(2-methoxyimino-1,1-dimethyl-ethyl)-2-methylsulfanyl-acetamide], the melting point was in the range of 95 to 96 °C. For the same molecule, in the series on Pythium ultimum, the inhibition of growth at 20 ppm is no less than 60%.
As to `C#Cc1cnc2ccc(OC(SC)C(=O)NC(C)(C)CC=NOC)cc2c1` (stereo not shown) [Compound No. 95, 2-(3-Ethynyl-quinolin-6-yloxy)-N-(3-methoxyimino-1,1-dimethyl-propyl)-2-methylsulfanyl-acetamide], the pest or weed control at 200 ppm (with Botrytis cinerea; in series [1]; in the series on Septoria nodorum; in [2]; with Phytophthora infestans; with Plasmopara viticola) was no less than 60% throughout. Further, the inhibition of growth at 200 ppm in the series with Fusarium culmorum and in the series with Septoria tritici was no less than 60% each time. Besides, in the series on Pythium ultimum, the inhibition of growth at 20 ppm was no less than 60%.
For the molecule `C#Cc1cnc2ccc(OC(SC)C(=O)NC(C)(C=NOC)COC)cc2c1` (stereo not shown) [Compound No. 65, 2-(3-Ethynyl-quinolin-6-yloxy)-N-(2-methoxyimino-1-methoxymethyl-1-methyl-ethyl)-2-methylsulfanyl-acetamide], the pest or weed control at 200 ppm (with Botrytis cinerea; in [1]; in the series on Septoria nodorum; in [2]; with Phytophthora infestans; in the series with Plasmopara viticola) was no less than 60% each time. The inhibition of growth at 200 ppm in the series with Fusarium culmorum and in the series on Septoria tritici was no less than 60% in each case. In addition, the inhibition of growth at 20 ppm in the series with Pythium ultimum is no less than 60%.
